# Values quoted from earlier work as cited in US20250152607A1, “COMPOSITIONS FOR VITAMIN D PRODUCTION” (DR WELLER LIMITED, priority 2022, published 2025).
# Key:
# [1] = powder
compound,measurement,setting,value
CC(C)[C@@H](C)/C=C/[C@@H](C)[C@H]1CC[C@H]2C3=CC=C4C[C@@H](O)CC[C@]4(C)[C@H]3CC[C@]12C [Ergosterol],skin irritancy,[1],skin irritant
CC1=C(/C=C\C2=CCC[C@]3(C)[C@@H]([C@H](C)CCCC(C)C)CC[C@@H]23)C[C@@H](O)CC1 [pre-vitamin D3],increase in rate of reaction for vitamin D3 formation from pre-vitamin D3,by interaction with membrane phospholipids,more than 10 fold
pre-vitamin D,time for isomerization of pre-vitamin D to vitamin D to reach equilibrium,in hexane at 37° C.,up to 10 days
